Source: patent US9169252B2 (BRISTOL-MYERS SQUIBB COMPANY, priority 2014, dated 2015)
Where a name gives a salt, the structure may show the parent alone. Read-outs that look alike come from different tables or passages of the source.

System: TLR2 induced IL-6 in peripheral blood mononuclear cells (PBMCs)
Experiment: PBMC TLR2 Induced IL-6 Assay
Format: cell-based, human
Details: IL-6 by ELISA; for EC50: read-out: Cell EC50; for IC50: read-out: Cell IC50
Experimental: PBMC TLR2 Induced IL-6 Assay
Peripheral blood mononuclear cells (PBMCs) were isolated from human blood containing the anti-coagulant EDTA (2.5 mM) by centrifugation over a FICOLL® gradient. PBMCs (250000 cells/well) were cultured in assay media (RPMI with 10% heat inactivated FCS) with compounds for 30 minutes at 37° C. in a 5% CO2 incubator. Following pretreatment with compounds, cells were stimulated for 5 hours with 10 µg/ml lipoteichoic acid (Invivogen, San Diego, Calif.), a TLR2 agonist. At the end of the culture, plates were centrifuged at 1800 rpm for 10 minutes to pellet the cells.

[1] = Homo sapiens, PBMC, PBMC TLR2 Induced IL-6 Assay, lipoteichoic acid stimulation
[2] = human PBMCs, lipoteichoic acid stimulated
[3] = Homo sapiens, PBMC, human PBMCs, lipoteichoic acid stimulated
[4] = PBMC TLR2 Induced IL-6 Assay, lipoteichoic acid stimulation

## CC(C)(O)[C@H](F)CNC(=O)c1cnc(-n2ccc3cc(C#N)cnc32)cc1NC1CCCOC1 (single isomer, unassigned) [Example 7]
[1]
  EC50: 477 nM
  IC50: 477 nM

## CC(C)Nc1cc(-n2ncc3cc(Cl)cnc32)ncc1C(=O)NC[C@@H](F)C(C)(C)O [Example 137, (R)-6-(5-chloro-1H-pyrazolo[3,4-b]pyridin-1-yl)-N-(2-fluoro-3-hydroxy-3-methylbutyl)-4-(isopropylamino)nicotinamide]
[1]
  EC50: 84 nM

## CC(C)Nc1cc(-n2ncc3cc(C#N)cnc32)ncc1C(=O)NCC1CCS(=O)(=O)C1 (centres unmarked) [Example 209]
[1]
  EC50: 322 nM

## CC(C)Nc1cc(-n2ccc3cc(C#N)cnc32)ncc1C(=O)N[C@H]1CC[C@](O)(c2ccnn2C)CC1 [Example 173, 6-(5-Cyano-1H-pyrrolo[2,3-b]pyridin-1-yl)-N-((1s,4s)-4-hydroxy-4-(1-methyl-1H-pyrazol-5-yl)cyclohexyl)-4-(isopropylamino)nicotinamide]
[1]
  EC50: 81 nM
  IC50: 242 nM

## CC(C)(O)[C@H](F)CNC(=O)c1cnc(-n2ncc3cc(C#N)cnc32)cc1N[C@@H]1CCOC1 [Example 544, 6-(5-Cyano-1H-pyrazolo[3,4-b]pyridin-1-yl)-N—((R)-2-fluoro-3-hydroxy-3-methylbutyl)-4-(((R)-tetrahydrofuran-3-yl)amino)nicotinamide, TFA salt]
Human PBMCs, lipoteichoic acid stimulated, TFA salt
  EC50: 239 nM

## CC(C)Nc1cc(-n2ccc3cc(C#N)cnc32)ncc1C(=O)NC1CCC(C(C)(O)C2CC2)CC1 (centres unmarked) [Example 444]
[2]
  EC50: 186 nM

## CC(C)(O)[C@H](F)CNC(=O)c1cnc(-n2ccc3cc(C#N)cnc32)cc1N[C@@H]1COC[C@H]1F (single isomer, unassigned) [Example 459]
[2]
  EC50: 95 nM
  IC50: 343 nM

## CC(F)CCNc1cc(-n2ncc3cc(C#N)cnc32)ncc1C(=O)NC[C@@H](F)C(C)(C)O (some centres unmarked) [Example 604]
[3]
  IC50: 104 nM

## CC(C)(O)[C@H](F)CNC(=O)c1cnc(-n2ccc3cc(C(N)=O)cnc32)cc1NCC1CNC1 [Example 475]
[3]
  EC50: 305 nM
  IC50: 1180 nM

## CC(Nc1cc(-n2ncc3cc(C#N)cnc32)ncc1C(=O)NC[C@@H](F)C(C)(C)O)C(F)(F)F (some centres unmarked) [Example 297]
[1]
  IC50: 219 nM

## CNC(=O)[C@H]1CC[C@H](NC(=O)c2cnc(-n3ccc4cc(C#N)cnc43)cc2NC2CCOCC2)CC1 [Example 86, 6-(5-cyano-1H-pyrrolo[2,3-b]pyridin-1-yl)-N-((trans)-4-(methylcarbamoyl)cyclohexyl)-4-((tetrahydro-2H-pyran-4-yl)amino)nicotinamide]
[1]
  EC50: 110 nM

## CC(C)Nc1cc(-n2ccc3cc(CNC(=O)CC(C)(C)O)cnc32)ncc1C(=O)NC[C@@H](F)C(C)(C)O [Example 499]
[3]
  IC50: 213 nM

## CC(C)(O)[C@H](F)CNC(=O)c1cnc(-n2ccc3cc(C#N)cnc32)cc1NC1CCCC(F)(F)C1O (stereo partly drawn) [Example 111, 6-(5-cyano-1H-pyrrolo[2,3-b]pyridin-1-yl)-4-((3,3-difluoro-2-hydroxycyclohexyl)amino)-N—((R)-2-fluoro-3-hydroxy-3-methylbutyl) nicotinamide]
[1]
  EC50: 238 nM

## CCCNc1cc(-n2ncc3cc(C#N)cnc32)ncc1C(=O)NC[C@@H](F)C(C)(C)O [Example 337]
[1]
  EC50: 572 nM
  IC50: 765 nM

## CC(O)CCNc1cc(-n2ncc3cc(C#N)cnc32)ncc1C(=O)NC[C@@H](F)C(C)(C)O (single isomer, unassigned) [Example 573]
[3]
  EC50: 729 nM
[2]
  IC50: 270 nM

## CC(C)(O)[C@H](F)CNC(=O)c1cnc(-n2ccc3cc(C#N)cnc32)cc1NC1CCC(O)C1 (single isomer, unassigned) [Example 26]
[4]
  EC50: 168 nM

## COc1cccc(Nc2cc(-n3ccc4cc(C#N)cnc43)ncc2C(=O)NC[C@@H](F)C(C)(C)O)c1 [Example 51, (R)-6-(5-cyano-1H-pyrrolo[2,3-b]pyridin-1-yl)-N-(2-fluoro-3-hydroxy-3-methylbutyl)-4-((3-methoxyphenyl)amino)nicotinamide]
[1]
  EC50: 65 nM

## CC(C)(O)[C@H](F)CNC(=O)c1cnc(-n2ncc3cc(C#N)cnc32)cc1N[C@H]1CCOC1 [Example 545, 6-(5-Cyano-1H-pyrazolo[3,4-b]pyridin-1-yl)-N—((R)-2-fluoro-3-hydroxy-3-methylbutyl)-4-(((S)-tetrahydrofuran-3-yl)amino)nicotinamide, TFA salt]
[3]
  EC50: 476 nM

## CC(O)CCNc1cc(-n2ncc3cc(C#N)cnc32)ncc1C(=O)NC[C@@H](F)C(C)(C)O (single isomer, unassigned) [Example 572]
[3]
  IC50: 303 nM

## CC(C)(O)[C@H](F)CNC(=O)c1cnc(-n2ccc3cc(C#N)cnc32)cc1NC1CCC(O)C1 (single isomer, unassigned) [Example 24]
[4]
  EC50: 30 nM

## CC(C)(O)[C@H](F)CNC(=O)c1cnc(-n2ncc3cc(C#N)cnc32)cc1N[C@@H]1CCN(c2ncc(F)cn2)C1 [Example 534]
[3]
  IC50: 824 nM
[2]
  EC50: 59 nM

## CC(C)(O)[C@H](F)CNC(=O)c1cnc(-n2ccc3cc(C#N)cnc32)cc1NC1CCC(O)C1 (single isomer, unassigned) [Example 27]
[4]
  EC50: 44 nM

## CC(C)Nc1cc(-n2ncc3cc(C#N)cnc32)ncc1C(=O)N[C@H]1CC[C@H](NC(=O)[C@@H](C)O)CC1 [Example 287]
[1]
  IC50: 489 nM

## CC(C)(O)[C@H](F)CNC(=O)c1cnc(-n2ccc3cc(C#N)cnc32)cc1NC1CCC(O)C1 (single isomer, unassigned) [Example 25]
[4]
  EC50: 22 nM

## CC(C)Nc1cc(-n2ccc3cc(C#N)cnc32)ncc1C(=O)NC[C@@H](F)C(C)O (single isomer, unassigned) [Example 48]
[4]
  EC50: 24 nM

## CC(C)Nc1cc(-n2ncc3cc(C#N)cnc32)ncc1C(=O)N[C@H]1CC[C@H](NC(=O)[C@H](C)O)CC1 [Example 274]
[1]
  IC50: 204 nM

## CC(C)(O)[C@H](F)CNC(=O)c1cnc(-n2ccc3cc(C#N)cnc32)cc1NC1CCCOC1 (single isomer, unassigned) [Example 8]
[4]
  EC50: 695 nM
  IC50: 695 nM

## CC(C)Nc1cc(-n2ccc3cc(C#N)ccc32)ncc1C(=O)N[C@H]1CC[C@H](C(C)(C)O)CC1 [Example 414, 6-(5-Cyano-1H-indol-1-yl)-N-((1R,4R)-4-(2-hydroxypropan-2-yl)cyclohexyl)-4-(isopropylamino)nicotinamide]
[3]
  EC50: 188 nM

## CC(C)Nc1cc(-n2ccc3cc(C#N)cnc32)ncc1C(=O)NC1CCC(C(C)(O)C2CC2)CC1 (centres unmarked) [Example 446]
[2]
  EC50: 51 nM

## CC(C)(O)[C@H](F)CNC(=O)c1cnc(-n2ncc3cncnc32)cc1NC1CC1 [Example 134, (R)-4-(cyclopropylamino)-N-(2-fluoro-3-hydroxy-3-methylbutyl)-6-(1H-pyrazolo[3,4-d]pyrimidin-1-yl)nicotinamide]
[1]
  EC50: 282 nM

## CC(C)(O)[C@H](F)CNC(=O)c1cnc(-n2ncc3cc(F)cnc32)cc1NC1CCC(O)C1 (single isomer, unassigned) [Example 609]
[2]
  EC50: 485 nM
  IC50: 1440 nM

## CC(C)(O)[C@H](F)CNC(=O)c1cnc(-n2ncc3cc(C#N)cnc32)cc1Nc1ccc(C#N)cc1 [Example 523]
[3]
  EC50: 24 nM

## Cn1cc(Nc2cc(-n3ncc4cc(C#N)cnc43)ncc2C(=O)NC[C@@H](F)C(C)(C)O)cn1 [Example 387]
[1]
  IC50: 198 nM

## CC(C)Nc1cc(-n2ccc3cc(C#N)cnc32)ncc1C(=O)NC[C@@H](F)C(C)O (single isomer, unassigned) [Example 49]
[4]
  EC50: 71 nM

## CC(C)Nc1cc(-n2ccc3cc(C#N)cnc32)ncc1C(=O)N[C@H]1CC[C@H]([N+](=O)[O-])CC1 [Example 95, 6-(5-cyano-1H-pyrrolo[2,3-b]pyridin-1-yl)-4-(isopropylamino)-N-((trans)-4-nitrocyclohexyl)nicotinamide]
[1]
  EC50: 408 nM

## CC(C)(O)[C@H](F)CNC(=O)c1cnc(-n2ncc3cc(Cl)cnc32)cc1NC1CC1 [Example 136, (R)-6-(5-chloro-1H-pyrazolo[3,4-b]pyridin-1-yl)-4-(cyclopropylamino)-N-(2-fluoro-3-hydroxy-3-methylbutyl)nicotinamide]
[1]
  EC50: 133 nM

## CCCNc1cc(-n2ncc3cc(C#N)cnc32)ncc1C(=O)NC[C@@H](F)C(C)(C)O [Example 592]
[3]
  IC50: 271 nM

## CC(C)Nc1cc(-n2ncc3cc(Cl)c(N)nc32)ncc1C(=O)NC[C@@H](F)C(C)(C)O [Example 282]
[1]
  IC50: 541 nM

## CC(C)(O)[C@H](F)CNC(=O)c1cnc(-n2ncc3cc(Cl)cnc32)cc1N[C@@H]1C[C@H]1CO (single isomer, unassigned) [Example 645]
[2]
  IC50: 154 nM

## CC(C)Nc1cc(-n2ncc3cc(O)cnc32)ncc1C(=O)NC[C@@H](F)C(C)(C)O [Example 153, (R)—N-(2-fluoro-3-hydroxy-3-methylbutyl)-6-(5-hydroxy-1H-pyrazolo[3,4-b]pyridin-1-yl)-4-(isopropylamino)nicotinamide]
[1]
  EC50: 160 nM

## CC(C)(O)[C@H](F)CNC(=O)c1cnc(-n2ncc3cc(Cl)cnc32)cc1NC1CCOCC1 [Example 135, (R)-6-(5-chloro-1H-pyrazolo[3,4-b]pyridin-1-yl)-N-(2-fluoro-3-hydroxy-3-methylbutyl)-4-((tetrahydro-2H-pyran-4-yl)amino) nicotinamide]
[1]
  EC50: 168 nM
